Data published in ChEMBL document CHEMBL3608308, “Design, synthesis and antiproliferative activity of novel heterobivalent hybrids based on imidazo[2,1-b][1,3,4]thiadiazole and imidazo[2,1-b][1,3]thiazole scaffolds” (Eur J Med Chem, 2015).
Active and inactive are the calls of the source. No cut-off for these calls is given here.

Key:
[1] = tested on: HL-60; assay: Induction of apoptosis in human HL60 cells assessed as cleavage of pro-caspase-8 at 3 uM incubated for 8 hrs by immunoblot method; type: functional, cell-based
[2] = tested on: U-937; assay: Induction of apoptosis in human U937 cells assessed as cleavage of pro-caspase-3 at 3 uM incubated for 8 hrs by immunoblot method; type: functional, cell-based
[3] = tested on: U-937; assay: Induction of apoptosis in human U937 cells assessed as increase in cytochrome c release into cytosol at 3 uM incubated for 8 hrs by immunoblot method; type: functional, cell-based
[4] = tested on: U-937; assay: Induction of apoptosis in human U937 cells assessed as cleavage of pro-caspase-8 at 3 uM incubated for 8 hrs by immunoblot method; type: functional, cell-based
[5] = tested on: U-937; assay: Cytotoxicity against human U937 cells assessed as reduction in cell viability incubated for 72 hrs by MTT assay; type: functional, cell-based; conditions: for IC50: U-937, 72 h
[6] = tested on: HL-60; assay: Induction of apoptosis in human HL60 cells assessed as hypodiploid cells level at 1 uM incubated for 24 hrs by propidium iodide staining based flow cytometry relative to untreated control; type: functional
[7] = tested on: HL-60; assay: Induction of apoptosis in human HL60 cells assessed as cleavage of pro-caspase-9 at 3 uM incubated for 8 hrs by immunoblot method; type: functional, cell-based
[8] = tested on: U-937; assay: Induction of apoptosis in human U937 cells assessed as induction of morphological changes by inverted phase contrast microscopy; type: functional, cell-based
[9] = tested on: U-937; assay: Induction of apoptosis in human U937 cells over-expressing human Bcl-2 assessed as induction of increase in apoptotic bodies at 3 uM incubated for 8 hrs by Hoechst 33258 staining based fluorescent microscopy; type: functional, cell-based
[10] = tested on: L1210; assay: Antiproliferative activity against mouse L1210 cells assessed as inhibition of cell proliferation incubated for 2 days by Coulter counter based assay; type: functional; conditions: L1210, 48 h
[11] = tested on: U-937; assay: Induction of apoptosis in human U937 cells assessed as induction of increase in apoptotic bodies at 3 uM incubated for 8 hrs by Hoechst 33258 staining based fluorescent microscopy; type: functional, cell-based
[12] = tested on: U-937; assay: Induction of apoptosis in human U937 cells over-expressing human Bcl-2 assessed as increase in cytochrome c release into cytosol at 3 uM incubated for 8 hrs by immunoblot method; type: functional, cell-based
[13] = tested on: HL-60; assay: Induction of apoptosis in human HL60 cells assessed as hypodiploid cells level at 1 and 10 uM incubated for 24 hrs by propidium iodide staining based flow cytometry; type: functional, cell-based
[14] = tested on: HL-60; assay: Induction of DNA laddering in human HL60 cells at 3 to 10 uM incubated for 24 hrs by ethidium bromide staining based gel electrophoresis method; type: functional, cell-based
[15] = tested on: HL-60; assay: Induction of apoptosis in human HL60 cells assessed as induction of morphological changes by inverted phase contrast microscopy; type: functional, cell-based
[16] = tested on: U-937; assay: Induction of apoptosis in human U937 cells over-expressing human Bcl-2 assessed as induction of cell shrinkage at 3 uM incubated for 8 hrs by Hoechst 33258 staining based fluorescent microscopy; type: functional
[17] = tested on: U-937; assay: Induction of apoptosis in human U937 cells over-expressing human Bcl-2 assessed as induction of morphological changes by inverted phase contrast microscopy; type: functional, cell-based
[18] = tested on: U-937; assay: Induction of apoptosis in human U937 cells assessed as cleavage of pro-caspase-9 at 3 uM incubated for 8 hrs by immunoblot method; type: functional, cell-based
[19] = tested on: U-937; assay: Induction of apoptosis in human U937 cells assessed as induction of increase in condensed and fragmented chromatin at 3 uM incubated for 8 hrs by Hoechst 33258 staining based fluorescent microscopy; type: functional, cell-based
[20] = tested on: HL-60; assay: Cytotoxicity against human HL60 cells assessed as reduction in cell viability incubated for 72 hrs by MTT assay; type: functional, cell-based; conditions: for IC50: HL-60, 72 h
[21] = tested on: FM3A; assay: Antiproliferative activity against mouse FM3A cells assessed as inhibition of cell proliferation incubated for 2 days by Coulter counter based assay; type: functional; conditions: 48 h
[22] = tested on: HL-60; assay: Induction of apoptosis in human HL60 cells assessed as increase in cytochrome c release into cytosol at 3 uM incubated for 8 hrs by immunoblot method; type: functional, cell-based
[23] = tested on: HeLa; assay: Antiproliferative activity against human HeLa cells assessed as inhibition of cell proliferation incubated for 4 days by Coulter counter based assay; type: functional; conditions: 96 h
[24] = tested on: CCRF-CEM; assay: Antiproliferative activity against human CEM cells assessed as inhibition of cell proliferation incubated for 3 days by Coulter counter based assay; type: functional; conditions: 72 h
[25] = tested on: U-937; assay: Induction of apoptosis in human U937 cells over-expressing human Bcl-2 assessed as induction of increase in condensed and fragmented chromatin at 3 uM incubated for 8 hrs by Hoechst 33258 staining based fluorescent microscopy; type: functional, cell-based
[26] = tested on: HL-60; assay: Induction of apoptosis in human HL60 cells assessed as cleavage of pro-caspase-3 at 3 uM incubated for 8 hrs by immunoblot method; type: functional, cell-based
[27] = tested on: U-937; assay: Cytotoxicity against human U937 cells over-expressing human Bcl-2 assessed as reduction in cell viability incubated for 72 hrs by MTT assay; type: functional, cell-based; conditions: for IC50: U-937, 72 h
[28] = tested on: HL-60; assay: Induction of apoptosis in human HL60 cells assessed as cleavage of pro-caspase-3/7 activity at 3 uM incubated for 8 hrs DEVD-pNA chromogenic substrate proteolytic cleavage assay; type: functional
[29] = tested on: U-937; assay: Induction of apoptosis in human U937 cells assessed as induction of cell shrinkage at 3 uM incubated for 8 hrs by Hoechst 33258 staining based fluorescent microscopy; type: functional
[30] = tested on: HL-60; assay: Induction of apoptosis in human HL60 cells assessed as hypodiploid cells level at 1 uM incubated for 24 hrs by propidium iodide staining based flow cytometry (reference value: 2.6 +/- 0.6%); type: functional
[31] = tested on: SK-MEL-1; assay: Cytotoxicity against human SK-MEL-1 cells assessed as reduction in cell viability incubated for 72 hrs by MTT assay; type: functional, cell-based; conditions: for IC50: SK-MEL-1, 72 h

SMILES	Activity [1]	Activity [2]	Activity [3]	Activity [4]	Activity [5]	IC50 [5] [nM]	fold change (FC) [6]	Activity [7]	Activity [8]	Activity [9]	IC50 [10] [nM]	Activity [11]	Activity [12]	Activity [13]	Activity [14]	Activity [15]	Activity [16]	Activity [17]	Activity [18]	Activity [19]	other results
C=C(Br)C(=O)Nc1cccc(-c2cn3nc(-c4cccs4)sc3n2)c1	Active	Active	Active	Active	Dose-dependent effect	570	5.6	Active	Active	Active	170	Active	Active	Dose-dependent effect	inactive	Active	Active	Active	Active	Active	Activity [20]: Dose-dependent effect; IC50 [20]: 380 nM; IC50 [21]: 370 nM; Activity [22]: Active; IC50 [23]: 670 nM; IC50 [24]: 410 nM; Activity [25]: Active; Activity [26]: Active; Activity [27]: Dose-dependent effect; IC50 [27]: 270 nM; fold change (FC) [28]: 3; Activity [29]: Active; Activity [30]: 14.5%; Activity [31]: Dose-dependent effect; IC50 [31]: 690 nM
C=C(Br)C(=O)Nc1cccc(-c2cn3nc(-c4ccc(OC)c(OC)c4)sc3n2)c1	Active	Active	Active	Active	Dose-dependent effect	270	6	Active	Active	Active	42	Active	Active	Dose-dependent effect	inactive	Active	Active	Active	Active	Active	Activity [20]: Dose-dependent effect; IC50 [20]: 210 nM; IC50 [21]: 110 nM; Activity [22]: Active; IC50 [23]: 610 nM; IC50 [24]: 380 nM; Activity [25]: Active; Activity [26]: Active; Activity [27]: Dose-dependent effect; IC50 [27]: 210 nM; fold change (FC) [28]: 3.2; Activity [29]: Active; Activity [30]: 16%; Activity [31]: Dose-dependent effect; IC50 [31]: 770 nM
